Assays:
thymus = system: thymus; set-up: species or system Male Wistar rats; conditions: rat, in vivo, 10080 min
Text: All of the steroids described in this invention are pharmacologically active compounds. The glucocorticoid activity of these products was studied in comparison with that of budesonide: pregna-1,4-diene-3,20-dione, 16,17-butylidenebis(oxy)-11-21-dihydroxy-(11β,16α). The pharmacologic action on the acetonides triamcinolone acetonide and flunisolide was also studied.
(§1) Anti-inflammatory effects of the compounds were screened in the cotton pellet granuloma bioassay for identification of lead compounds. (Meier et al., Eperimentia 6, 469, 1950). Male Wistar rats were used, ranging in weight between 90 and 120 g, at the rate of 10 animals per group, previously identified and quartered in individual cages. The animals had free access to feed and drink throughout the trial.
(§2) Cotton pellets weighing exactly 20 mg were prepared, sterilized for 2 hr. at 160° C. soaked with 50 λl solution of the product or with the solvent before implantation, and subsequently the solvent is evaporated before application. The implantation was performed subcutaneously in the axillary zone of the animals previously anesthetized with ether (right axilla pellet with product, left axilla pellet with solvent). Animals in which pellets without product were implanted were used as controls.
(§3) The drug was applied in alcohol solution at 4 dosage levels. Once the pellets were implanted, the animals were kept under normal rearing conditions, isolated for 7 days and then weighed, after which they were sacrificed by exsanguination.
Extraction and weighing of the thymus and adrenals were performed in all animals and a fluorometric determination of the cortisol plasma levels was made. We consider the variation in these parameters indicative of the systemic glucocorticoid activity of the products.
(§4) Anti-inflammatory ED50 (topical effect), thymus inhibition ED50 (systemic effect), therapeutic index (systemic ED50 /topical ED50), and the therapeutic index relative to budesonide (=1).
(§5) All of the ED50 values were calculated from the linear regression lines with the confidence limits.

[1] = corticosteroids used in aerosol form; cited from earlier work
[2] = system: cotton-pellet-induced granuloma; assay: cotton pellet granuloma bioassay, topical anti-inflammatory activity (inhibitory effect on granuloma weight); type: in vivo, Male Wistar rats; conditions: for Topical anti-inflammatory activity (Cotton Pellet), ED50: local application on implanted pellet, 4 dosage levels, 7 days; for Therapeutic index systemic ED50 / topical ED50: thymus inhibition ED50 / cotton pellet ED50, 10080 min
Text: The glucocorticoid activity of these products was studied in comparison with that of budesonide: pregna-1,4-diene-3,20-dione, 16,17-butylidenebis(oxy)-11-21-dihydroxy-(11β,16α). The pharmacologic action on the acetonides triamcinolone acetonide and flunisolide was also studied.
as §1, §2, §3
The topical activity was determined by the inhibitory effect on the weight of the cotton-pellet-induced granuloma; the granulomas were extracted and weighed (pellet and connective tissue surrounding them, dried for 24 hr in a 60° oven, and weighed).
as §4, §5

Row | Compound | Systemic glucocorticoid activity (Thymus inhibition), ED50 (thymus) [μg/pellet] | effect in aerosol form [1] | Topical anti-inflammatory activity (Cotton Pellet), ED50 [2] [μg/pellet] | Therapeutic index systemic ED50 / topical ED50 [2]
1 | CC1(C)O[C@@H]2C[C@H]3[C@@H]4CCC5=CC(=O)C=C[C@]5(C)[C@@]4(F)[C@@H](O)C[C@]3(C)[C@]2(C(=O)CO)O1 (stereo in doubt) [TRIAMCINOLONE ACETONIDE, triamcinolone acetonide, reference compound] | 156.4 | highly positive effect | 220.7 | 0.7
2 | CCCC1O[C@@H]2C[C@H]3[C@@H]4CCC5=CC(=O)C=C[C@]5(C)[C@H]4[C@@H](O)C[C@]3(C)[C@]2(C(=O)CO)O1 (stereo partly drawn) [BUDESONIDE, pregna-1,4-diene-3,20-dione, 16,17-butylidenebis(oxy)-11-21-dihydroxy-(11β,16α), reference compound] | 178.6 | highly positive effect | 163.6 | 1.09
3 | CC(C)C(=O)OCC(=O)C12OC(C3CCCCC3)OC1CC1C3CCC4=CC(=O)C=CC4(C)C3C(O)CC12C [Compound 7, (22R,S)-pregna 1,4-diene-3,20-dione, 16,17-[[cyclohexylmethylidyne]bis (oxy)]-11-hydroxy-21-(2-methyl-1-oxo-propoxy)-(11β,16α)] | 614.7 | – | 21.7 | 28.3
4 | CC(C)C(=O)OCC(=O)C12OC(C3CCCCC3)OC1CC1C3CCC4=CC(=O)C=CC4(C)C3C(O)CC12C [Compound 8, (22,S)-pregna 1,4-diene-3,20-dione 16,17-[[cyclohexyl-methylidyne]bis (oxy)]-11-hydroxy-21-(2-methyl-1-oxo-propoxy)-(11β,16α)] | 608 | – | 20.5 | 29.6
5 | CC(C)C(=O)OCC(=O)C12OC(C3CCCCC3)OC1CC1C3CCC4=CC(=O)C=CC4(C)C3C(O)CC12C (centres unmarked) [Compound 9] | 667.1 | – | 25.4 | 26.2
6 | CCCCC1OC2CC3C4CCC5=CC(=O)C=CC5(C)C4C(O)CC3(C)C2(C(=O)COC(C)=O)O1 [Compound 10, (22R,S)-of pregna 1,4-diene-3,20-dione-21-(acetyloxy)-11-hydroxy-16,17-(pentylidene) bis(oxy)-(11β,16α)] | 583.2 | – | 59.9 | 9.7
7 | CCCCC1OC2CC3C4CCC5=CC(=O)C=CC5(C)C4C(O)CC3(C)C2(C(=O)COC(C)=O)O1 [Compound 11, (22S)-pregna 1,4-diene-3,20-dione-21-(acetyloxy)-11-hydroxy-16,17-(pentylidene)-bis-(oxy)-(11β,16α)] | 555.3 | – | 43 | 12.9
8 | CCCCC1OC2CC3C4CCC5=CC(=O)C=CC5(C)C4C(O)CC3(C)C2(C(=O)COC(C)=O)O1 (centres unmarked) [Compound 12] | 592.2 | – | 74.7 | 7.9
9 | CC(C)C(=O)OCC(=O)C12OC(C3CCCCC3)OC1CC1C3CC(F)C4=CC(=O)C=CC4(C)C3(F)C(O)CC12C [Compound 13, (22R,S)-pregna 1,4-diene-3,20-dione-16,17-(cyclohyxylmethylidine)-bis-(oxy)-6,9-difluoro-11-hydroxy-21-(methyl-1-oxo-propoxy)-(11β,16α)] | 54 | – | 4.5 | 12
10 | CC(C)C(=O)OCC(=O)C12OC(C3CCCCC3)OC1CC1C3CC(F)C4=CC(=O)C=CC4(C)C3(F)C(O)CC12C [Compound 14, (22S)-pregna-1,4-diene-3,20-dione-16,17-(cyclohexylmethylidine)-bis-(oxy)-6,9-difluoro-11-hydroxy-21-(s-methyl-1-oxo-propoxy)-(11β,16α)] | 49 | – | 3.6 | 13.6
11 | CC(C)C(=O)OCC(=O)C12OC(C3CCCCC3)OC1CC1C3CC(F)C4=CC(=O)C=CC4(C)C3(F)C(O)CC12C (centres unmarked) [Compound 15] | 56.3 | – | 5.2 | 10.8
12 | CC1(C)O[C@@H]2C[C@H]3[C@@H]4C[C@H](F)C5=CC(=O)C=C[C@]5(C)[C@H]4[C@@H](O)C[C@]3(C)[C@]2(C(=O)CO)O1 [FLUNISOLIDE, flunisolide, reference compound] | 156 | highly positive effect | 351.6 | 0.44
13 | CCC(=O)OCC(=O)[C@@]1(OC(=O)CC)[C@@H](C)C[C@H]2[C@@H]3CCC4=CC(=O)C=C[C@]4(C)[C@@]3(Cl)[C@@H](O)C[C@@]21C [beclomethasone dipropionate] | – | highly positive effect | – | –
14 | CCCCC(=O)O[C@]1(C(=O)CO)[C@@H](C)C[C@H]2[C@@H]3CCC4=CC(=O)C=C[C@]4(C)[C@@]3(F)[C@@H](O)C[C@@]21C [betamethasone valerate] | – | highly positive effect | – | –

— patent US5482934A, “Pregna-1,4-diene3,20-dione-16-17-acetal-21 esters, process for their preparation, composition, and methods for the treatment of inflammatory conditions” (priority 1994, dated 1996)
